The compounds below were run against T1, NPM-ALK (Homo sapiens, UniProt Q9UM73) (assay: NPM-ALK BaF3 assay (growth inhibition of BaF3-NPM-ALK cells)). Conditions: human NPM-ALK overexpressing murine BaF3 cells.
T1 construct: nucleophosmin (NPM, NPM1; human P06748) fusion partner; expressed in transfected cells; host or cells: murine BaF3 cells (DSMZ), transfected with pCIneo (Promega) coding for NPM-ALK and selected with G418; the other entry of the earlier key: Npm1 (Q61937, Nucleophosmin)
Format: cell-based
Source text: The expression of NPM-ALK may be achieved by transfecting the BaF3 cell line with an expression vector pClneo™ (Promega Corp., Madison Wis., USA) coding for NPM-ALK and subsequent selection of G418 resistant cells. Non-transfected BaF3 cells depend on IL-3 for cell survival. In contrast, NPM-ALK expressing BaF3 cells (named BaF3-NPM-ALK hereinafter) can proliferate in the absence of IL-3 because they obtain proliferative signal through NPM-ALK kinase. Putative inhibitors of the NPM-ALK kinase therefore abolish the growth signal and may result in antiproliferative activity. The antiproliferative activity of putative inhibitors of the NPM-ALK kinase can however be overcome by addition of IL-3, which provides growth signals through an NPM-ALK independent mechanism. An analogous cell system using FLT3 kinase has also been described (see, E Weisberg et al. Cancer Cell; 1, 433-443 (2002)).
The inhibitory activity of the compounds of the invention may be determined as follows. In general, BaF3-NPM-ALK cells (15,000/microtitre plate well) are transferred to 96-well microtitre plates. Test compounds dissolved in dimethyl sulfoxide (DMSO) are added in a series of concentrations (dilution series) in such a manner that the final concentration of DMSO is not greater than 1% (v/v). After the addition, the plates are incubated for two days during which the control cultures without test compound are able to undergo two cell-division cycles. The growth of the BaF3-NPM-ALK cells is measured by means of YOPRO™ staining [T Idziorek et al. J. Immunol. Methods; 185: 249-258 (1995)]: 25 μl of lysis buffer comprising 20 mM sodium citrate, pH 4.0, 26.8 mM sodium chloride, 0.4% NP40, 20 mM EDTA and […] to each well. Cell lysis is completed within 60 min at room temperature and total amount of YOPRO™ bound to DNA is determined by measurement using the Cytofluor II 96-well reader (PerSeptive Biosystems) with the following settings: Excitation (nm) 485/20 and Emission (nm) 530/25.
IC50 values may be determined by a computer-aided system using the formula: IC50=[(ABStest−ABSstart)/(ABScontrol−ABSstart)]×100·(ABS=absorption)
In general, compounds of the invention have IC50 values from 1 nM to 10 μM. In some examples, compounds of the invention have IC50 values from 0.01 μM to 5 μM. In other examples, compounds of the invention have IC50 values from 0.01 μM to 1 μM, or more particularly from 1 nM to 1 μM.
Table 1 describes representative compounds of the invention, prepared following the procedures described above. IC50 values are as measured in an NPM-ALK BaF3 assay.

T1 sequence (Q9UM73 with tags, fused parts or gaps): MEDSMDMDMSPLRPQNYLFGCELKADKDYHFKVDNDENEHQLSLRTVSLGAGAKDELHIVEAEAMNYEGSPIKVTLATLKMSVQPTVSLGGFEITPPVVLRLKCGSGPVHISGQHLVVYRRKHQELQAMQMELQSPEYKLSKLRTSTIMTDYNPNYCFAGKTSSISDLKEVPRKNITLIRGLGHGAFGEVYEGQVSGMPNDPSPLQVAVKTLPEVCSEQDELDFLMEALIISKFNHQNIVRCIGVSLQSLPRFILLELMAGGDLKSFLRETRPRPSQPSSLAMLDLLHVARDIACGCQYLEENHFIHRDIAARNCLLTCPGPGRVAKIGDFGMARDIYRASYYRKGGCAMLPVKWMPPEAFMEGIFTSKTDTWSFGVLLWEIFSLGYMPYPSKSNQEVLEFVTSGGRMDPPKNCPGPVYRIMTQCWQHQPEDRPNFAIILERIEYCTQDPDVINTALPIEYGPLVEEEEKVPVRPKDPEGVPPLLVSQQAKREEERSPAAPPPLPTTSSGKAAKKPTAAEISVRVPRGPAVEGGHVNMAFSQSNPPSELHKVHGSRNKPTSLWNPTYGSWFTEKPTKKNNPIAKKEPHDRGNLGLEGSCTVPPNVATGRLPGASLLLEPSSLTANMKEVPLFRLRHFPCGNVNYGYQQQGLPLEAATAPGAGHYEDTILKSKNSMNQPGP

IC50 [nM] | SMILES
115 | Cc1cc(Nc2nc(Nc3ccccc3S(=O)(=O)C(C)C)n3nccc3n2)c(OC(C)C)cc1C1CCN(C)CC1 [Ex 1, N2-(2-isopropoxy-5-methyl-4-(1-methylpiperidin-4-yl)phenyl)-N4-(2-(isopropylsulfonyl)phenyl)pyrazolo[1,5-a][1,3,5]triazine-2,4-diamine]
19 | COc1cc(C2CCN(C)CC2)c(C)cc1Nc1nc(Nc2ccccc2S(=O)(=O)C(C)C)n2nccc2n1 [Ex 3]
38 | COc1cc(C2CCNCC2)c(C)cc1Nc1nc(Nc2ccccc2S(=O)(=O)C(C)C)n2nccc2n1 [Ex 4]
140 | Cc1cc(CN2CCC(c3cc(OC(C)C)c(Nc4nc(Nc5ccccc5S(=O)(=O)C(C)C)n5nccc5n4)cc3C)CC2)[nH]n1 [Ex 5]
80 | Cc1cc(Nc2nc(Nc3ccccc3S(=O)(=O)C(C)C)n3nccc3n2)c(OC(C)C)cc1C1CCN(Cc2cnn(C)c2)CC1 [Ex 6]
50 | COc1cc(C2CCN(CCS(C)(=O)=O)CC2)c(C)cc1Nc1nc(Nc2ccccc2S(=O)(=O)C(C)C)n2nccc2n1 [Ex 7]
43 | COc1cc(C2CCN(CC3CC3)CC2)c(C)cc1Nc1nc(Nc2ccccc2S(=O)(=O)C(C)C)n2nccc2n1 [Ex 8]
138 | COc1cc(C2CCOCC2)c(C)cc1Nc1nc(Nc2ccccc2S(=O)(=O)C(C)C)n2nccc2n1 [Ex 10]
1400 | Cc1cc(C2CCNCC2)c(Cl)cc1Nc1nc(Nc2ccccc2S(=O)(=O)C(C)C)n2nccc2n1 [Ex 11]
28 | CNC(=O)CN1CCC(c2cc(OC)c(Nc3nc(Nc4ccccc4S(=O)(=O)C(C)C)n4nccc4n3)cc2C)CC1 [Ex 12]
15 | COc1cc(C2CCN(CCC(N)=O)CC2)c(C)cc1Nc1nc(Nc2ccccc2S(=O)(=O)C(C)C)n2nccc2n1 [Ex 13]
26 | COc1cc(C2CCN(C(=O)CN3CCCCC3)CC2)c(C)cc1Nc1nc(Nc2ccccc2S(=O)(=O)C(C)C)n2nccc2n1 [Ex 14]
31 | COc1cc(C2CCN(C(=O)CN3CCCC3)CC2)c(C)cc1Nc1nc(Nc2ccccc2S(=O)(=O)C(C)C)n2nccc2n1 [Ex 15]
22 | CNCC(=O)N1CCC(c2cc(OC)c(Nc3nc(Nc4ccccc4S(=O)(=O)C(C)C)n4nccc4n3)cc2C)CC1 [Ex 17]
39 | COc1cc(C2CCN(C(=O)C3(N)CC3)CC2)c(C)cc1Nc1nc(Nc2ccccc2S(=O)(=O)C(C)C)n2nccc2n1 [Ex 18]
68 | CNCCC(=O)N1CCC(c2cc(OC)c(Nc3nc(Nc4ccccc4S(=O)(=O)C(C)C)n4nccc4n3)cc2C)CC1 [Ex 19]
26 | COc1cc(C2CCN(C(=O)CN3CCC3)CC2)c(C)cc1Nc1nc(Nc2ccccc2S(=O)(=O)C(C)C)n2nccc2n1 [Ex 20]
286 | COc1cc(C2CCN(C(=O)CN3C[C@@H](O)[C@H](O)C3)CC2)c(C)cc1Nc1nc(Nc2ccccc2S(=O)(=O)C(C)C)n2nccc2n1 [Ex 21]
23 | CCNC1(C(=O)N2CCC(c3cc(OC)c(Nc4nc(Nc5ccccc5S(=O)(=O)C(C)C)n5nccc5n4)cc3C)CC2)CC1 [Ex 22]
16 | COc1cc(C2CCN(CC(N)=O)CC2)c(C)cc1Nc1nc(Nc2ccccc2S(=O)(=O)C(C)C)n2nccc2n1 [Ex 23]
21 | CN[C@@H](C)C(=O)N1CCC(c2cc(OC)c(Nc3nc(Nc4ccccc4S(=O)(=O)C(C)C)n4nccc4n3)cc2C)CC1 [Ex 24]
22 | COc1cc(C2CCN(C(=O)CCN(C)C)CC2)c(C)cc1Nc1nc(Nc2ccccc2S(=O)(=O)C(C)C)n2nccc2n1 [Ex 25]
25 | CNC1(C(=O)N2CCC(c3cc(OC)c(Nc4nc(Nc5ccccc5S(=O)(=O)C(C)C)n5nccc5n4)cc3C)CC2)CC1 [Ex 26]
44 | CNC(C)(C)C(=O)N1CCC(c2cc(OC)c(Nc3nc(Nc4ccccc4S(=O)(=O)C(C)C)n4nccc4n3)cc2C)CC1 [Ex 27]
54 | COc1cc(C2CCN(C(=O)C3CCCCN3)CC2)c(C)cc1Nc1nc(Nc2ccccc2S(=O)(=O)C(C)C)n2nccc2n1 (centres unmarked) [Ex 29]
36 | COc1cc(C2CCN(C(=O)C3CCCN3)CC2)c(C)cc1Nc1nc(Nc2ccccc2S(=O)(=O)C(C)C)n2nccc2n1 (centres unmarked) [Ex 31]

IC50 [nM] | SMILES
29 | COc1cc(C2CCN(C(=O)C3COCCN3)CC2)c(C)cc1Nc1nc(Nc2ccccc2S(=O)(=O)C(C)C)n2nccc2n1 (centres unmarked) [Ex 32]
25 | COc1cc(C2CCN(C(=O)C3CCCN3C)CC2)c(C)cc1Nc1nc(Nc2ccccc2S(=O)(=O)C(C)C)n2nccc2n1 (centres unmarked) [Ex 34]
130 | CC(C)S(=O)(=O)c1ccccc1Nc1nc(Nc2ccc(C3CCNCC3)cc2)nc2ccnn12 [Ex 37]
464 | CC(C)S(=O)(=O)c1ccccc1Nc1nc(Nc2ccc3c(c2)CN(CCS(C)(=O)=O)CC3)nc2ccnn12 [Ex 39]
136 | CC(C)S(=O)(=O)c1ccccc1Nc1nc(Nc2ccc3c(c2)CCN(CCS(C)(=O)=O)C3)nc2ccnn12 [Ex 40]
85 | CC(C)S(=O)(=O)c1ccccc1Nc1nc(Nc2ccc3c(c2)CCNC3)nc2ccnn12 [Ex 41]
1020 | CC(C)S(=O)(=O)c1ccccc1Nc1nc(Nc2ccc3c(c2)CNCC3)nc2ccnn12 [Ex 42]
150 | COc1cc(C2CCN(C(=O)CNC[C@@H](O)CO)CC2)c(C)cc1Nc1nc(Nc2ccccc2S(=O)(=O)C(C)C)n2nccc2n1 [Ex 43]
18 | CN[C@H](C)C(=O)N1CCC(c2cc(OC)c(Nc3nc(Nc4ccccc4S(=O)(=O)C(C)C)n4nccc4n3)cc2C)CC1 [Ex 44]
62 | Cc1cc(C2CCN(CCS(C)(=O)=O)CC2)c(C)cc1Nc1nc(Nc2ccccc2S(=O)(=O)C(C)C)n2nccc2n1 [Ex 45]
31 | Cc1cc(C2CCN(CCS(C)(=O)=O)CC2)ccc1Nc1nc(Nc2ccccc2S(=O)(=O)C(C)C)n2nccc2n1 [Ex 46]
46 | Cc1cc(Nc2nc(Nc3ccccc3S(=O)(=O)C(C)C)n3nccc3n2)ccc1C1CCN(CCS(C)(=O)=O)CC1 [Ex 47]
59 | Cc1cc(C2CCN(C(=O)CCN(C)C)CC2)c(C)cc1Nc1nc(Nc2ccccc2S(=O)(=O)C(C)C)n2nccc2n1 [Ex 48]
129 | Cc1cc(C2CCN(C(=O)CCN(C)C)CC2)ccc1Nc1nc(Nc2ccccc2S(=O)(=O)C(C)C)n2nccc2n1 [Ex 49]
52 | COc1cc(C2CCN(C(=O)[C@@H]3C[C@@H](O)CN3C)CC2)c(C)cc1Nc1nc(Nc2ccccc2S(=O)(=O)C(C)C)n2nccc2n1 [Ex 50]
42 | COc1cc(C2CCN(C(=O)[C@@H]3C[C@H](F)CN3)CC2)c(C)cc1Nc1nc(Nc2ccccc2S(=O)(=O)C(C)C)n2nccc2n1 [Ex 54]
63 | COc1cc(C2CCN(C(=O)[C@@H]3C[C@H](O)CN3)CC2)c(C)cc1Nc1nc(Nc2ccccc2S(=O)(=O)C(C)C)n2nccc2n1 [Ex 55]
79 | COc1cc(C2CCN(C(=O)[C@H]3C[C@@H](O)CN3)CC2)c(C)cc1Nc1nc(Nc2ccccc2S(=O)(=O)C(C)C)n2nccc2n1 [Ex 56]
32 | COc1cc(C2CCN(C(=O)CNC(C)C)CC2)c(C)cc1Nc1nc(Nc2ccccc2S(=O)(=O)C(C)C)n2nccc2n1 [Ex 57]
86 | COc1cc(C2CCN(C(=O)CNCCO)CC2)c(C)cc1Nc1nc(Nc2ccccc2S(=O)(=O)C(C)C)n2nccc2n1 [Ex 58]
193 | COc1cc(C2CCN(C(=O)CN3CC(O)C3)CC2)c(C)cc1Nc1nc(Nc2ccccc2S(=O)(=O)C(C)C)n2nccc2n1 [Ex 59]
31 | COc1cc(C2CCN(C(=O)CN3CC[C@@H](O)C3)CC2)c(C)cc1Nc1nc(Nc2ccccc2S(=O)(=O)C(C)C)n2nccc2n1 [Ex 60]
34 | COc1cc(C2CCN(C(=O)[C@H](C)N3CCC3)CC2)c(C)cc1Nc1nc(Nc2ccccc2S(=O)(=O)C(C)C)n2nccc2n1 [Ex 61]
58 | COc1cc(C2CCN(C(=O)CN3CC[C@@H](F)C3)CC2)c(C)cc1Nc1nc(Nc2ccccc2S(=O)(=O)C(C)C)n2nccc2n1 [Ex 62]
53 | COc1cc(C2CCN(C(=O)CNC(C)(C)C)CC2)c(C)cc1Nc1nc(Nc2ccccc2S(=O)(=O)C(C)C)n2nccc2n1 [Ex 63]
28 | COc1cc(C2CCN(C(=O)[C@H](C)NC(C)C)CC2)c(C)cc1Nc1nc(Nc2ccccc2S(=O)(=O)C(C)C)n2nccc2n1 [Ex 64]

SMILES | IC50 [nM]
COc1cc(C2CCN(C(=O)CN(C)C)CC2)c(C)cc1Nc1nc(Nc2ccccc2S(=O)(=O)C(C)C)n2nccc2n1 [Ex 2] | 11

Reference: patent publication US8518931B2, “Compounds and compositions as kinase inhibitors” (IRM LLC, priority 2008, dated 2013)
